# Source: PubChem BioAssay (NCI)
#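 The compound was tested at five concentrations on cells cultured in 96-well plates, with a 48-hour exposure period. Abbreviation: GI50, concentration required for 50% inhibition of growth. At the TGI there is no net growth.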
# Tests used:
# Test in all cases: growth of human tumour cells (NCI), 48 h
# T-47D breast = system: T-47D breast
# HCC-2998 colon = system: HCC-2998 colon
# SF-268 CNS = system: SF-268 CNS
# K-562 leukemia = system: K-562 leukemia
# RPMI-8226 leukemia = system: RPMI-8226 leukemia
# HOP-62 NSCLC = system: HOP-62 NSCLC
# A498 renal = system: A498 renal
# SK-MEL-5 melanoma = system: SK-MEL-5 melanoma
# CAKI-1 renal = system: CAKI-1 renal
# A549 NSCLC = system: A549 NSCLC
# NCI/ADR-RES ovarian = system: NCI/ADR-RES ovarian
# RXF 393 renal = system: RXF 393 renal
# SN12C renal = system: SN12C renal
# MCF7 breast = system: MCF7 breast
# HS 578T breast = system: HS 578T breast
# NCI-H522 lung = system: NCI-H522 lung
# OVCAR-5 ovarian = system: OVCAR-5 ovarian
# SK-OV-3 ovarian = system: SK-OV-3 ovarian
# NCI-H460 lung = system: NCI-H460 lung
# HCT-15 colon = system: HCT-15 colon
# MDA-MB-435 = system: MDA-MB-435
# TK-10 renal = system: TK-10 renal
# OVCAR-8 ovarian = system: OVCAR-8 ovarian
# SK-MEL-28 melanoma = system: SK-MEL-28 melanoma
# COLO 205 colon = system: COLO 205 colon
# MDA-MB-231 breast = system: MDA-MB-231 breast
# OVCAR-3 ovarian = system: OVCAR-3 ovarian
# MALME-3M melanoma = system: MALME-3M melanoma
# NCI-H226 lung = system: NCI-H226 lung
# SW-620 colon = system: SW-620 colon
# 786-0 renal = system: 786-0 renal
# SK-MEL-2 melanoma = system: SK-MEL-2 melanoma
# ACHN renal = system: ACHN renal
# U251 CNS = system: U251 CNS
# HCT-116 colon = system: HCT-116 colon
# KM12 colon = system: KM12 colon
# SF-539 CNS = system: SF-539 CNS
# UO-31 renal = system: UO-31 renal
# EKVX NSCLC = system: EKVX NSCLC
# HOP-92 NSCLC = system: HOP-92 NSCLC
# OVCAR-4 ovarian = system: OVCAR-4 ovarian
# SNB-75 CNS = system: SNB-75 CNS
# HT29 colon = system: HT29 colon
# SNB-19 CNS = system: SNB-19 CNS
# NCI-H23 lung = system: NCI-H23 lung
# LOX IMVI melanoma = system: LOX IMVI melanoma
# PC-3 prostate = system: PC-3 prostate
# UACC-257 melanoma = system: UACC-257 melanoma
# IGROV1 ovarian = system: IGROV1 ovarian
# SF-295 CNS = system: SF-295 CNS
# UACC-62 melanoma = system: UACC-62 melanoma
# M14 melanoma = system: M14 melanoma
# BT-549 breast = system: BT-549 breast
# DU-145 prostate = system: DU-145 prostate
structure (smiles),measurement,setting,value
Fc1cc(-c2csc3n[nH]c(=S)n23)c(Cl)cc1Cl,GI50,T-47D breast,53.3 µM
same,TGI,T-47D breast,> 100 µM
same,GI50,HCC-2998 colon,25.8 µM
same,TGI,HCC-2998 colon,70.1 µM
same,GI50,SF-268 CNS,35.5 µM
same,TGI,SF-268 CNS,> 100 µM
same,GI50,K-562 leukemia,32.2 µM
same,TGI,K-562 leukemia,> 100 µM
same,GI50,RPMI-8226 leukemia,23.5 µM
same,TGI,RPMI-8226 leukemia,> 100 µM
same,GI50,HOP-62 NSCLC,20.1 µM
same,TGI,HOP-62 NSCLC,38.8 µM
same,GI50,A498 renal,19 µM
same,TGI,A498 renal,47.1 µM
same,GI50,SK-MEL-5 melanoma,55.7 µM
same,TGI,SK-MEL-5 melanoma,> 100 µM
same,GI50,CAKI-1 renal,33 µM
same,TGI,CAKI-1 renal,> 100 µM
same,GI50,A549 NSCLC,42 µM
same,TGI,A549 NSCLC,> 100 µM
same,GI50,NCI/ADR-RES ovarian,37.6 µM
same,TGI,NCI/ADR-RES ovarian,> 100 µM
same,GI50,RXF 393 renal,21.6 µM
same,TGI,RXF 393 renal,63 µM
same,GI50,SN12C renal,22.4 µM
same,TGI,SN12C renal,58.8 µM
same,GI50,MCF7 breast,48.4 µM
same,TGI,MCF7 breast,> 100 µM
same,GI50,HS 578T breast,28.8 µM
same,TGI,HS 578T breast,92.7 µM
same,GI50,NCI-H522 lung,39.2 µM
same,TGI,NCI-H522 lung,> 100 µM
same,GI50,OVCAR-5 ovarian,41 µM
same,TGI,OVCAR-5 ovarian,> 100 µM
same,GI50,SK-OV-3 ovarian,35.6 µM
same,TGI,SK-OV-3 ovarian,> 100 µM
same,GI50,NCI-H460 lung,35.4 µM
same,TGI,NCI-H460 lung,> 100 µM
same,GI50,HCT-15 colon,32.8 µM
same,TGI,HCT-15 colon,> 100 µM
same,GI50,MDA-MB-435,55.8 µM
same,TGI,MDA-MB-435,> 100 µM
same,GI50,TK-10 renal,38.5 µM
same,TGI,TK-10 renal,> 100 µM
same,GI50,OVCAR-8 ovarian,44.5 µM
same,TGI,OVCAR-8 ovarian,> 100 µM
same,GI50,SK-MEL-28 melanoma,48.2 µM
same,TGI,SK-MEL-28 melanoma,> 100 µM
same,GI50,COLO 205 colon,41.7 µM
same,TGI,COLO 205 colon,> 100 µM
same,GI50,MDA-MB-231 breast,14.5 µM
same,TGI,MDA-MB-231 breast,40.1 µM
same,GI50,OVCAR-3 ovarian,34.9 µM
same,TGI,OVCAR-3 ovarian,> 100 µM
same,GI50,MALME-3M melanoma,41.1 µM
same,TGI,MALME-3M melanoma,> 100 µM
same,GI50,NCI-H226 lung,19.6 µM
same,TGI,NCI-H226 lung,59.7 µM
same,GI50,SW-620 colon,> 100 µM
same,TGI,SW-620 colon,> 100 µM
same,GI50,786-0 renal,22.2 µM
same,TGI,786-0 renal,42.7 µM
same,GI50,SK-MEL-2 melanoma,26.7 µM
same,TGI,SK-MEL-2 melanoma,76.5 µM
same,GI50,ACHN renal,23.7 µM
same,TGI,ACHN renal,57.5 µM
same,GI50,U251 CNS,17.1 µM
same,TGI,U251 CNS,35.4 µM
same,GI50,HCT-116 colon,27.3 µM
same,TGI,HCT-116 colon,88.8 µM
same,GI50,KM12 colon,32.6 µM
same,TGI,KM12 colon,> 100 µM
same,GI50,SF-539 CNS,24.7 µM
same,TGI,SF-539 CNS,41 µM
same,GI50,UO-31 renal,43 µM
same,TGI,UO-31 renal,> 100 µM
same,GI50,EKVX NSCLC,21.1 µM
same,TGI,EKVX NSCLC,66 µM
same,GI50,HOP-92 NSCLC,21.1 µM
same,TGI,HOP-92 NSCLC,55.3 µM
same,GI50,OVCAR-4 ovarian,27.7 µM
same,TGI,OVCAR-4 ovarian,73.9 µM
same,GI50,SNB-75 CNS,22.1 µM
same,TGI,SNB-75 CNS,50 µM
same,GI50,HT29 colon,65.8 µM
same,TGI,HT29 colon,> 100 µM
same,GI50,SNB-19 CNS,47 µM
same,TGI,SNB-19 CNS,> 100 µM
same,GI50,NCI-H23 lung,23.5 µM
same,TGI,NCI-H23 lung,78.8 µM
same,GI50,LOX IMVI melanoma,37.2 µM
same,TGI,LOX IMVI melanoma,> 100 µM
same,GI50,PC-3 prostate,31.4 µM
same,TGI,PC-3 prostate,> 100 µM
same,GI50,UACC-257 melanoma,93.5 µM
same,TGI,UACC-257 melanoma,> 100 µM
same,GI50,IGROV1 ovarian,58.9 µM
same,TGI,IGROV1 ovarian,> 100 µM
same,GI50,SF-295 CNS,17.8 µM
same,TGI,SF-295 CNS,50.5 µM
same,GI50,UACC-62 melanoma,18.6 µM
same,TGI,UACC-62 melanoma,48.4 µM
same,GI50,M14 melanoma,39.9 µM
same,TGI,M14 melanoma,> 100 µM
same,GI50,BT-549 breast,36.4 µM
same,TGI,BT-549 breast,> 100 µM
same,GI50,DU-145 prostate,32.5 µM
same,TGI,DU-145 prostate,> 100 µM
